The assay relates to fluorescence-marked casein. The assay can be described thus: Proteolytic pepsin activity with fluorescence-marked casein after contact with ground bovine dentine. It is filed as biochemical. The settings on record: 2.5 ml of 10 μg/ml solution, pH 2.0 buffer, on 1 g ground bovine dentine for 20 min; excitation 480 nm, emission 510 nm. As for the experimental part: 2.5 ml of a pepsin solution (10 μg/ml) in a 20 mM disodium hydrogen phosphate buffer (pH 2.0) were added to 1 g of ground bovine dentine and allowed to remain there for 20 min. under agitation. Subsequently the mixture was centrifuged for 1 min. in a Heraeus Biofuge Pico at 10,000 rpm. 900 μl of the residue were mixed with 12 μg of fluorescence-marked casein (Molecular Probes company, Göttingen) in 100 μl 20 mM of disodium hydrogen phosphate buffer (pH 2.0). The presence of proteolytic pepsin activity is manifested in the increase in fluorescence with an excitation wave length of 480 nm and with an emission wave length of 510 nm.

Consider pepsin, for which the “proteolytic pepsin activity (increase in fluorescence)” value is recorded as “no pepsin activity was determinable any more”.

The values above are taken from US6752989B1, “Tooth surface treatment agent” (3M ESPE AG, priority 1999, dated 2004).
